Consider 68 sequences from the supplement of paper PMC11208160.
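Further: IS621 bridge recombinase in Escherichia coli cells against a fixed T5 target plasmid.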

The series in a line: recombinant UMI read abundance after kanamycin selection (control-corrected) (log10(CPM+1)); higher = more efficient recombination; extreme values may be limits of the assay; sequences stand for … in AGTGCAGAGAAAATCGGCCAGTTTTCTCTGCCTGCAGTCCGCATGCCGTGGGACCCCTTGGGTTCTAACCTGTTGCCTAGATTTATGCAGCGGACTGCCTTTCTCCCAAAGTGATAAACCGG…AGGTTGGTTTCACT; site = the 11-nt donor. The method, boiled down:
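For the IS621 bridge recombinase, a pooled Escherichia coli screen tested donor and donor-binding-loop pairs. Cells received the pair library together with a target plasmid encoding a fixed target and T7-inducible recombinase, then went onto IPTG (0.07 mM) plus kanamycin or unselected plates in duplicate. After PCR across the donor–target junction and sequencing, recombinant UMI counts were normalized to CPM, averaged, and scaled by control-derived factors. Each value is given as log10(CPM+1).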
Regarding “CTTTATTCATGGACCGGTTTTCCCGGTAATCCGTATTTGCG (site CTTTATTCTCG)”, the “recombinant UMI read abundance (log10)” value was 1.11.

For “CTTTGCCCATGGACCGGTTTTCCCGGTAATCCGTATTTGCT (site CTTTGCCCTAG)”, the “recombinant UMI read abundance (log10)” value was found to be 0.182.

Consider “CTTTGGGCATGGACCGGTTTTCCCGGTAATCCGTATTTGCC (site CTTTGGGCTGG)”, for which the “recombinant UMI read abundance (log10)” value was found to be 0.

For “CTTTTATCATGGACCGGTTTTCCCGGTAATCCGTATTTGAC (site CTAGTATCTGT)”, the “recombinant UMI read abundance (log10)” value worked out at 0.225.

Consider “CTTTTATCATGGACCGGTTTTCCCGGTAATCCGTATTTGAC (site CTTTTATCTGT)”, for which the “recombinant UMI read abundance (log10)” value amounted to 0.762.

Turning to “GAAAAACCATGGACCGGTTTTCCCGGTAATCCGTATTTGGT (site GAAAAACCTAC)”, the “recombinant UMI read abundance (log10)” value worked out at 0.

Turning to “GAAAAACCATGGACCGGTTTTCCCGGTAATCCGTATTTGGT (site GACAAACCTAC)”, the “recombinant UMI read abundance (log10)” value worked out at 0.

As for “GAAAAACCATGGACCGGTTTTCCCGGTAATCCGTATTTGGT (site GAGAAACCTAC)”, the “recombinant UMI read abundance (log10)” value came out at 0.

Consider “GAAAAACCATGGACCGGTTTTCCCGGTAATCCGTATTTGGT (site GATAAACCTAC)”, for which the “recombinant UMI read abundance (log10)” value came to 0.

Regarding “GAAAAGGCATGGACCGGTTTTCCCGGTAATCCGTATTTGTC (site GAAAAGGCTGA)”, the “recombinant UMI read abundance (log10)” value worked out at 2.08.

For the sequence “GAAACACCATGGACCGGTTTTCCCGGTAATCCGTATTTGAG (site GAAACACCTCT)”, the “recombinant UMI read abundance (log10)” value was determined as 0.0146.

Regarding “GAAAGCCCATGGACCGGTTTTCCCGGTAATCCGTATTTGAC (site GAAAGCCCTGT)”, the “recombinant UMI read abundance (log10)” value stood at 0.

Consider “GAAAGCTCATGGACCGGTTTTCCCGGTAATCCGTATTTGCC (site GAAAGCTCTGG)”, for which the “recombinant UMI read abundance (log10)” value turned out to be 2.75.

For “GAAATCTCATGGACCGGTTTTCCCGGTAATCCGTATTTGCG (site GAAATCTCTCG)”, the “recombinant UMI read abundance (log10)” value worked out at 2.44.

As to “GAAATGGCATGGACCGGTTTTCCCGGTAATCCGTATTTGAC (site GAAATGGCTGT)”, the “recombinant UMI read abundance (log10)” value is 1.42.

For the sequence “GAACAATCATGGACCGGTTTTCCCGGTAATCCGTATTTGCC (site GAACAATCTGG)”, the “recombinant UMI read abundance (log10)” value came to 1.67.

As for “GAACCGTCATGGACCGGTTTTCCCGGTAATCCGTATTTGTT (site GAACCGTCTAA)”, the “recombinant UMI read abundance (log10)” value stood at 1.

With “GAACGAACATGGACCGGTTTTCCCGGTAATCCGTATTTGGT (site GAACGAACTAC)”, the “recombinant UMI read abundance (log10)” value worked out at 1.21.

Consider “GAACTAGCATGGACCGGTTTTCCCGGTAATCCGTATTTGGT (site CGTTGCCCTTA)”, for which the “recombinant UMI read abundance (log10)” value came to 0.00867.

As for “GAACTGGCATGGACCGGTTTTCCCGGTAATCCGTATTTGCT (site GAACTGGCTAG)”, the “recombinant UMI read abundance (log10)” value is 0.00438.

“GAACTTGCATGGACCGGTTTTCCCGGTAATCCGTATTTGAC (site CTTACCACTAA)”: the “recombinant UMI read abundance (log10)” value came to 0.0118.

As to “GAAGAGACATGGACCGGTTTTCCCGGTAATCCGTATTTGCT (site GAAGAGACTAG)”, the “recombinant UMI read abundance (log10)” value stood at 2.79.

Consider “GAAGATGCATGGACCGGTTTTCCCGGTAATCCGTATTTGTT (site GAAGATACTAA)”, for which the “recombinant UMI read abundance (log10)” value is 1.88.

With “GAAGATGCATGGACCGGTTTTCCCGGTAATCCGTATTTGTT (site GAAGATCCTAA)”, the “recombinant UMI read abundance (log10)” value turned out to be 0.286.

On to “GAAGATGCATGGACCGGTTTTCCCGGTAATCCGTATTTGTT (site GAAGATGCTAA)”, for which the “recombinant UMI read abundance (log10)” value was 2.81.

Regarding “GAAGATGCATGGACCGGTTTTCCCGGTAATCCGTATTTGTT (site GAAGATTCTAA)”, the “recombinant UMI read abundance (log10)” value is 0.

As for “GAAGATTCATGGACCGGTTTTCCCGGTAATCCGTATTTGGT (site GAAGATTCTAA)”, the “recombinant UMI read abundance (log10)” value came out at 0.995.

For “GAAGATTCATGGACCGGTTTTCCCGGTAATCCGTATTTGGT (site GAAGATTCTAC)”, the “recombinant UMI read abundance (log10)” value was 3.05.

As to “GAAGATTCATGGACCGGTTTTCCCGGTAATCCGTATTTGGT (site GAAGATTCTAG)”, the “recombinant UMI read abundance (log10)” value turned out to be 0.

“GAAGATTCATGGACCGGTTTTCCCGGTAATCCGTATTTGGT (site GAAGATTCTAT)”: the “recombinant UMI read abundance (log10)” value was 1.82.

With “GAAGATTCATGGACCGGTTTTCCCGGTAATCCGTATTTGTA (site GAAGATTCTAA)”, the “recombinant UMI read abundance (log10)” value amounted to 0.349.

With “GAAGATTCATGGACCGGTTTTCCCGGTAATCCGTATTTGTA (site GAAGATTCTCA)”, the “recombinant UMI read abundance (log10)” value came out at 1.55.

With “GAAGATTCATGGACCGGTTTTCCCGGTAATCCGTATTTGTA (site GAAGATTCTGA)”, the “recombinant UMI read abundance (log10)” value came to 0.

With “GAAGATTCATGGACCGGTTTTCCCGGTAATCCGTATTTGTA (site GAAGATTCTTA)”, the “recombinant UMI read abundance (log10)” value amounted to 2.5.

As to “GAAGCAGCATGGACCGGTTTTCCCGGTAATCCGTATTTGCT (site AAAGCAGCTAG)”, the “recombinant UMI read abundance (log10)” value was determined as 1.32.

With “GAAGCAGCATGGACCGGTTTTCCCGGTAATCCGTATTTGCT (site CAAGCAGCTAG)”, the “recombinant UMI read abundance (log10)” value was found to be 1.19.

For “GAAGCAGCATGGACCGGTTTTCCCGGTAATCCGTATTTGCT (site GAAGCAGCTAG)”, the “recombinant UMI read abundance (log10)” value was found to be 2.25.

Turning to “GAAGCAGCATGGACCGGTTTTCCCGGTAATCCGTATTTGCT (site TAAGCAGCTAG)”, the “recombinant UMI read abundance (log10)” value amounted to 2.01.

As for “GAAGCGCCATGGACCGGTTTTCCCGGTAATCCGTATTTGTG (site AAAGCGCCTCA)”, the “recombinant UMI read abundance (log10)” value was determined as 0.00334.

With “GAAGCGCCATGGACCGGTTTTCCCGGTAATCCGTATTTGTG (site CAAGCGCCTCA)”, the “recombinant UMI read abundance (log10)” value was 0.00406.

On to “GAAGCGCCATGGACCGGTTTTCCCGGTAATCCGTATTTGTG (site GAAGCGCCTCA)”, for which the “recombinant UMI read abundance (log10)” value worked out at 0.139.

As to “GAAGCGCCATGGACCGGTTTTCCCGGTAATCCGTATTTGTG (site TAAGCGCCTCA)”, the “recombinant UMI read abundance (log10)” value was 0.00772.

For the sequence “GAAGGGCCATGGACCGGTTTTCCCGGTAATCCGTATTTGTG (site GAAGGGCCTCA)”, the “recombinant UMI read abundance (log10)” value was found to be 0.0149.

Regarding “GAAGGTACATGGACCGGTTTTCCCGGTAATCCGTATTTGAC (site GAAGGTACTGT)”, the “recombinant UMI read abundance (log10)” value came out at 2.28.

For “GAAGGTACATGGACCGGTTTTCCCGGTAATCCGTATTTGAC (site GCAGGTACTGT)”, the “recombinant UMI read abundance (log10)” value was determined as 0.

In the case of “GAAGGTACATGGACCGGTTTTCCCGGTAATCCGTATTTGAC (site GGAGGTACTGT)”, the “recombinant UMI read abundance (log10)” value was determined as 0.

On to “GAAGGTACATGGACCGGTTTTCCCGGTAATCCGTATTTGAC (site GTAGGTACTGT)”, for which the “recombinant UMI read abundance (log10)” value is 2.16.

Regarding “GAAGTCGCATGGACCGGTTTTCCCGGTAATCCGTATTTGGT (site GAAGTCGCTAC)”, the “recombinant UMI read abundance (log10)” value turned out to be 1.34.

For the sequence “GAAGTGGCATGGACCGGTTTTCCCGGTAATCCGTATTTGGT (site GAAGTGGCTAC)”, the “recombinant UMI read abundance (log10)” value came to 0.489.

Consider “GAAGTGGCATGGACCGGTTTTCCCGGTAATCCGTATTTGGT (site GCAGTGGCTAC)”, for which the “recombinant UMI read abundance (log10)” value is 0.177.

“GAAGTGGCATGGACCGGTTTTCCCGGTAATCCGTATTTGGT (site GGAGTGGCTAC)”: the “recombinant UMI read abundance (log10)” value came out at 0.113.

Turning to “GAAGTGGCATGGACCGGTTTTCCCGGTAATCCGTATTTGGT (site GTAGTGGCTAC)”, the “recombinant UMI read abundance (log10)” value was 0.882.

As to “GAAGTGTCATGGACCGGTTTTCCCGGTAATCCGTATTTGAA (site GAAGTGTCTTT)”, the “recombinant UMI read abundance (log10)” value is 3.13.

As to “GAATAGCCATGGACCGGTTTTCCCGGTAATCCGTATTTGCA (site GAATAGCCTTG)”, the “recombinant UMI read abundance (log10)” value turned out to be 0.97.

“GAATAGCCATGGACCGGTTTTCCCGGTAATCCGTATTTGCA (site GAATCGCCTTG)”: the “recombinant UMI read abundance (log10)” value came out at 0.

Turning to “GAATAGCCATGGACCGGTTTTCCCGGTAATCCGTATTTGCA (site GAATGGCCTTG)”, the “recombinant UMI read abundance (log10)” value is 0.0428.

In the case of “GAATAGCCATGGACCGGTTTTCCCGGTAATCCGTATTTGCA (site GAATTGCCTTG)”, the “recombinant UMI read abundance (log10)” value came out at 0.

Regarding “GAATGAGCATGGACCGGTTTTCCCGGTAATCCGTATTTGGG (site AAATGAGCTCC)”, the “recombinant UMI read abundance (log10)” value stood at 0.0126.

As for “GAATGAGCATGGACCGGTTTTCCCGGTAATCCGTATTTGGG (site CAATGAGCTCC)”, the “recombinant UMI read abundance (log10)” value stood at 0.0211.

For the sequence “GAATGAGCATGGACCGGTTTTCCCGGTAATCCGTATTTGGG (site GAATGAGCTCC)”, the “recombinant UMI read abundance (log10)” value came to 0.261.

With “GAATGAGCATGGACCGGTTTTCCCGGTAATCCGTATTTGGG (site TAATGAGCTCC)”, the “recombinant UMI read abundance (log10)” value came out at 0.317.

As for “GAATGGCCATGGACCGGTTTTCCCGGTAATCCGTATTTGCC (site GAATGGCCTAG)”, the “recombinant UMI read abundance (log10)” value was found to be 0.

In the case of “GAATGGCCATGGACCGGTTTTCCCGGTAATCCGTATTTGCC (site GAATGGCCTCG)”, the “recombinant UMI read abundance (log10)” value was 0.0106.

On to “GAATGGCCATGGACCGGTTTTCCCGGTAATCCGTATTTGCC (site GAATGGCCTGG)”, for which the “recombinant UMI read abundance (log10)” value was 0.

For the sequence “GAATGGCCATGGACCGGTTTTCCCGGTAATCCGTATTTGCC (site GAATGGCCTTG)”, the “recombinant UMI read abundance (log10)” value was 0.

For “GAATGGCCATGGACCGGTTTTCCCGGTAATCCGTATTTGCG (site GAATGGCCTAG)”, the “recombinant UMI read abundance (log10)” value is 0.

Consider “GAATGGCCATGGACCGGTTTTCCCGGTAATCCGTATTTGCG (site GAATGGCCTCG)”, for which the “recombinant UMI read abundance (log10)” value is 0.0153.

With “GAATGGCCATGGACCGGTTTTCCCGGTAATCCGTATTTGCG (site GAATGGCCTGG)”, the “recombinant UMI read abundance (log10)” value was 0.
